Test results as given in PubChem BioAssay (NCI).
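These data come from cells grown in 96-well plates and exposed to compound for 48 hours at five concentrations. Abbreviation: GI50, concentration required for 50% inhibition of growth. At the TGI there is no net growth.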

Legend:
Assay in all cases: NCI tumour cell line growth inhibition, 48 h
[1] = system: SNB-78 CNS
[2] = system: M19-MEL melanoma
[3] = system: HOP-18 NSCLC
[4] = system: XF 498 CNS
[5] = system: DLD-1 colon
[6] = system: KM20L2 colon
[7] = system: RXF-631 renal
[8] = system: SN12K1 renal
[9] = system: P388/ADR leukemia
[10] = system: P388 leukemia
[11] = system: T-47D breast

SMILES | TGI [1] [µM] | TGI [2] [µM] | TGI [3] [µM] | TGI [4] [µM] | TGI [5] [µM] | TGI [6] [µM] | TGI [7] [µM] | GI50 [1] [µM] | GI50 [2] [µM] | GI50 [4] [µM] | GI50 [7] [µM] | GI50 [5] [µM] | GI50 [6] [µM] | TGI [8] [mM] | TGI [9] [µM] | TGI [10] [µM] | GI50 [11] [µM] | TGI [11] [mM]
CC1=C2CCCC2=C/C(=N/Nc2ccc([N+](=O)[O-])cc2[N+](=O)[O-])CC1 | > 100 | > 100 | > 100 | > 100 | > 100 | > 100 | – | – | – | – | – | – | – | – | – | – | – | –
O=C1[C@@H]2C3c4ccccc4C([C@@H]2C(=O)N1c1ccccc1)S3(=O)=O | > 100 | > 100 | > 100 | > 100 | > 100 | > 100 | > 100 | – | – | – | – | – | – | – | – | – | – | –
CCC1C2C=CC(CC2)N1S(=O)(=O)c1ccc(C)cc1 (stereo not given) | – | > 100 | – | – | – | 38.2 | > 100 | – | – | – | – | – | – | – | – | – | – | –
Cc1ccc(NC(=O)C2C(=O)N(c3ccc(C)c(C)c3)C(=O)C2N=N)cc1C (stereo not given) | > 100 | > 100 | > 100 | > 100 | > 100 | > 100 | > 100 | – | – | – | – | – | – | – | – | – | – | –
CCCCCCC[CH2][Sn]1([CH2]CCCCCCC)[O]C(=O)c2cccnc2[S]1 | > 100 | > 100 | – | > 100 | > 100 | > 100 | > 100 | > 100 | > 100 | 30.8 | > 100 | > 100 | > 100 | – | – | – | – | –
CCc1cccc(C)c1NC(=O)C(=O)Cc1nc2ccccc2o1 | > 100 | > 100 | > 100 | > 100 | > 100 | > 100 | – | – | – | – | – | – | – | – | – | – | – | –
CCOc1ccc(N2C(=O)/C(=C/c3ccc(N(CCC#N)CCC#N)cc3)N=C2c2cc([N+](=O)[O-])ccc2Cl)cc1 | > 100 | 66.5 | > 100 | – | > 100 | – | > 100 | – | – | – | – | – | – | – | – | – | – | –
O=C(O)[C@H](NS(=O)(=O)c1ccc2ccccc2c1)c1ccccc1 | – | > 100 | > 100 | > 100 | > 100 | > 100 | > 100 | – | – | – | – | – | – | – | – | – | – | –
COc1ccc2oc(-c3cccnc3)cc(=O)c2c1 | – | > 100 | – | > 100 | > 100 | – | > 100 | – | – | – | – | – | – | – | – | – | – | –
N=c1ccn2c(n1)OC1C(O)C(CO)OC12 (stereo not given) | > 1000 | > 1000 | > 662 | > 1000 | > 1000 | > 562 | – | – | – | – | – | – | – | > 1 | 5.13 | 4.37 | 16.8 | > 1
O=c1[nH]cc(COCCO)c(=O)[nH]1 | > 100 | > 100 | > 100 | > 100 | > 100 | > 100 | > 100 | – | – | – | – | – | – | – | – | – | – | –
Cc1ccc(S(=O)(=O)N/N=C/c2oc(-c3ccncc3)c(-c3ccncc3)c2[N+](=O)[O-])cc1 | > 100 | > 100 | > 100 | > 100 | > 100 | > 100 | > 100 | – | – | – | – | – | – | – | – | – | – | –
O=C1CC(C[C@H](O)C2CCCCC2O)CC(=O)N1Cc1ccccc1 (stereo not given in full) | > 100 | > 100 | > 100 | > 100 | > 100 | > 100 | > 100 | – | – | – | – | – | – | – | – | – | – | –
COc1ccc(-c2cc(-c3ccccc3)c(C#N)c(=O)n2C2OC(CO)C(O)C(O)C2O)cc1 (stereo not given) | > 100 | > 100 | > 100 | – | > 100 | > 100 | > 100 | – | – | – | – | – | – | – | – | – | – | –
Cc1c(Cl)cccc1N1C(=O)C(Cl)=C(Cl)C1=O | > 100 | > 100 | > 100 | > 100 | > 100 | > 100 | – | – | – | – | – | – | – | – | – | – | – | –
O=C(NCCCCN=c1cccccc1NCCCCNC(=O)OCc1ccccc1)OCc1ccccc1 | 71.1 | 39.3 | – | 18.6 | 43.6 | 26.1 | 26.1 | – | – | – | – | – | – | – | – | – | – | –
COc1ccc(/C(=N\NC(=O)C(N)=O)C(c2ccc(OC)cc2)C2(O)C(=O)Nc3c(Cl)cccc32)cc1 (stereo not given) | > 100 | > 100 | > 100 | > 100 | > 100 | > 100 | – | – | – | – | – | – | – | – | – | – | – | –
CC(=O)n1c2c(c(=O)n1-c1ccccc1)S(=O)CCC2 (stereo not given) | > 100 | > 100 | – | > 100 | > 100 | > 100 | > 100 | – | – | – | – | – | – | – | – | – | – | –
CCOC(=O)C(C)(C)Oc1ccc2c(C)c(-c3ccc(Cl)cc3)c(=O)oc2c1 | – | > 100 | – | 83.9 | > 100 | > 100 | > 100 | – | – | – | – | – | – | – | – | – | – | –
CCOc1ccc2c(c1)[n+]([O-])c(-c1ccccc1Cl)c(N)[n+]2[O-] | > 100 | > 100 | > 100 | > 100 | > 100 | > 100 | > 100 | – | – | – | – | – | – | – | – | – | – | –
COC(=O)[C@]1(C)CCCC2(C)C1CC[C@H]1C=C(C)[C@H]3CCC12C3 (stereo not given in full) | > 100 | – | – | > 100 | > 100 | > 100 | > 100 | – | – | – | – | – | – | – | – | – | – | –
